Laboratory results as given in ChEMBL document CHEMBL5316264, “Identification of N- and C-3-Modified Laudanosoline Derivatives as Novel Influenza PAN Endonuclease Inhibitors” (J Med Chem, 2023).

Target: Polymerase acidic protein (Influenza A virus (A/Puerto Rico/8/1934(H1N1)), UniProt P03433)
Details: hek293t

Compound | IC50 [µM]
CCCOC(=O)[C@@H]1Cc2cc(O)c(O)cc2[C@H](Cc2ccc(O)c(O)c2)N1C(=O)c1ccccc1Cl | 10.8
O=C1c2c(O)c(=O)ccn2N([C@@H]2c3ccccc3SCc3c2ccc(F)c3F)[C@@H]2COCCN12 [BALOXAVIR] | 300
